Experimental data from paper PMC3292467, “Comparison between ^68Ga-bombesin (^68Ga-BZH3) and the cRGD tetramer ^68Ga-RGD4 studies in an experimental nude rat model with a neuroendocrine pancreatic tumor cell line” (EJNMMI Research, 2011).
Where two headings read alike, the source gives them in different places. Each block holds one molecule with its values, some of them ahead of it. Square brackets hold non-standard residues; d marks the D form.

What was measured:
[1] = Dynamic PET, tumor uptake (SUV) in AR42J tumor-bearing nude rats; type: in vivo, rat; details: Wistar (nude), rat, tumor (AR42J), iv, i.v. 20 to 40 MBq (BZH3, n = 5), 10 to 30 MBq (RGD4, n = 4), nude rats, read-out: SUV (standardized uptake value) in tumor
From the text: (§1) Irregular regions of interest were drawn manually.

AR42J tumor [2] = test: as above; type: in vivo, rat; details: i.v. 20 to 40 MBq (BZH3, n = 5), 10 to 30 MBq (RGD4, n = 4), nude rats
From the text: as §1

AR42J tumor [3] = details: AR42J tumor-bearing nude rats, n = 5 (BZH3), n = 4 (RGD4); for VB (vessel density, fractional blood volume): dynamic PET 60 min, i.v.
Procedure: The AR42J cell line, derived from a rat exocrine pancreas neuroendocrine tumor, was used. Cells were obtained from the European Collection of Cell Cultures and were grown in RPMI 1640 medium supplemented with 2 mmol/L glutamine and 10% fetal calf serum. Adherent cells were dislodged with trypsin/ethylenediaminetetraacetic acid (0.02%: 0.05%, w/v). For PET-studies, 5 × 10^6 cells in 200 μl RPMI without supplements were inoculated subcutaneously in the right hind leg of Wistar rats.
The study included nine AR 42 J tumor-bearing nude rats. We grouped all rats according to PET tracers (B, ^68Ga-BZH3 and R, ^68Ga-RGD4), used in dynamic PET scanning, as noted in Table 1. Dynamic PET studies were performed for 60 min after the intravenous application of 10 to 30 MBq ^68Ga-RGD4 or 20 to 40 MBq ^68Ga-BZH3, using a 28-frame protocol (ten frames of 30 s, five frames of 60 s, five frames of 120 s, and eight frames of 300 s). Two animals can be examined in parallel per scanning by a homemade injector (Figure 2). A dedicated PET-CT system (Biograph™ mCT, 128 S/X, Siemens Co, Erlangen, Germany) with an axial field of view of 21.6 cm with TrueV, operated in a three-dimensional mode, was used for all animal studies. The system provides the simultaneous acquisition of 369 transverse slices with a slice thickness of 0.6 mm. The animals were positioned in the axial plane of the system to maintain the best resolution in the center of the system. All PET images were attenuation-corrected and an image matrix of 400 × 400 pixels was used for iterative image reconstruction (voxel size 1.565 × 1.565 × 0.6 mm) based on the syngo MI PET/CT 2009C software version. After the end of the dynamic series an ultrahigh resolution CT with 85 mA, 80 kV and a pitch of 0.85 cm was performed for attenuation correction of the acquired dynamic emission data. The reconstructed images were converted to SUV images based on the formula [24]: SUV = Tissue concentration (becquerel per gram)/[injected dose ([…]))/body weight (gram)]. The SUV 55 to 60 min post-injection was used for the assessment of both tracers. The SUV images were used for all further quantitative evaluations.
Dynamic PET data were evaluated using the software package PMOD (provided courtesy of PMOD Technologies Ltd., Zuerich, Switzerland). Areas with enhanced tracer uptake on transaxial, coronal, and sagittal images were evaluated visually. A volume of interest consists of several regions of interest over the target area. Irregular regions of interest were drawn manually. A detailed quantitative evaluation of tracer kinetics requires the use of compartmental modeling. A two-tissue-compartment model was used to evaluate the dynamic studies.
In animals, a partial volume correction must be applied to the data due to the small size of the input and tumor volumes of interest (VOIs). Herein, the recovery coefficient was 0.85 for a diameter of 8 mm and 0.32 for a diameter of 3 mm based on phantom measurements as well as the recent parameter settings used with the reconstruction software. For the input function the mean values of the VOI data obtained from the heart were used. We used a preprocessing tool, which allowed a fit of the input curve by a sum of up to three decaying exponentials. The learning-machine two-tissue-compartment model was used for the fitting and provided five parameters: the transport parameters for tracer into and out of the cell, K1 and k2, the parameters for phosphorylation and dephosphorylation of intracellular tracer, k3 and k4, and the fractional blood volume, also called vessel density (VB), which reflects the amount of blood in the VOI. Following compartment analysis, we calculated the global influx of tracer from the compartment data using the formula: influx = (K1 × k3)/(k2 + k3). […] The model parameters were accepted when K1 - k4 was less than 1 and VB exceeded 0. The unit for the rate constants K1 to k4 was 1/min.

[4] = 3D fused PET-CT images; male rat
Procedure: The study included nine AR 42 J tumor-bearing nude rats. We grouped all rats according to PET tracers (B, ^68Ga-BZH3 and R, ^68Ga-RGD4), used in dynamic PET scanning, as noted in Table 1. Dynamic PET studies were performed for 60 min after the intravenous application of 10 to 30 MBq ^68Ga-RGD4 or 20 to 40 MBq ^68Ga-BZH3, using a 28-frame protocol (ten frames of 30 s, five frames of 60 s, five frames of 120 s, and eight frames of 300 s). Two animals can be examined in parallel per scanning by a homemade injector (Figure 2). A dedicated PET-CT system (Biograph™ mCT, 128 S/X, Siemens Co, Erlangen, Germany) with an axial field of view of 21.6 cm with TrueV, operated in a three-dimensional mode, was used for all animal studies. The system provides the simultaneous acquisition of 369 transverse slices with a slice thickness of 0.6 mm. The animals were positioned in the axial plane of the system to maintain the best resolution in the center of the system. […] The SUV images were used for all further quantitative evaluations.
Dynamic PET data were evaluated using the software package PMOD (provided courtesy of PMOD Technologies Ltd., Zuerich, Switzerland). Areas with enhanced tracer uptake on transaxial, coronal, and sagittal images were evaluated visually. […] A detailed quantitative evaluation of tracer kinetics requires the use of compartmental modeling. […]

ανβ3 = ανβ3 (Homo sapiens, UniProt P05106+P06756); test: biochemical
integrin ανβ3, P06756 = molecular target: T1, integrin ανβ3, P06756; test: not stated; IC50 of ^68Ga-RGD4 for ανβ3; format, competitor and conditions not told; details: remark: other sources report otherwise
T1 chain 1: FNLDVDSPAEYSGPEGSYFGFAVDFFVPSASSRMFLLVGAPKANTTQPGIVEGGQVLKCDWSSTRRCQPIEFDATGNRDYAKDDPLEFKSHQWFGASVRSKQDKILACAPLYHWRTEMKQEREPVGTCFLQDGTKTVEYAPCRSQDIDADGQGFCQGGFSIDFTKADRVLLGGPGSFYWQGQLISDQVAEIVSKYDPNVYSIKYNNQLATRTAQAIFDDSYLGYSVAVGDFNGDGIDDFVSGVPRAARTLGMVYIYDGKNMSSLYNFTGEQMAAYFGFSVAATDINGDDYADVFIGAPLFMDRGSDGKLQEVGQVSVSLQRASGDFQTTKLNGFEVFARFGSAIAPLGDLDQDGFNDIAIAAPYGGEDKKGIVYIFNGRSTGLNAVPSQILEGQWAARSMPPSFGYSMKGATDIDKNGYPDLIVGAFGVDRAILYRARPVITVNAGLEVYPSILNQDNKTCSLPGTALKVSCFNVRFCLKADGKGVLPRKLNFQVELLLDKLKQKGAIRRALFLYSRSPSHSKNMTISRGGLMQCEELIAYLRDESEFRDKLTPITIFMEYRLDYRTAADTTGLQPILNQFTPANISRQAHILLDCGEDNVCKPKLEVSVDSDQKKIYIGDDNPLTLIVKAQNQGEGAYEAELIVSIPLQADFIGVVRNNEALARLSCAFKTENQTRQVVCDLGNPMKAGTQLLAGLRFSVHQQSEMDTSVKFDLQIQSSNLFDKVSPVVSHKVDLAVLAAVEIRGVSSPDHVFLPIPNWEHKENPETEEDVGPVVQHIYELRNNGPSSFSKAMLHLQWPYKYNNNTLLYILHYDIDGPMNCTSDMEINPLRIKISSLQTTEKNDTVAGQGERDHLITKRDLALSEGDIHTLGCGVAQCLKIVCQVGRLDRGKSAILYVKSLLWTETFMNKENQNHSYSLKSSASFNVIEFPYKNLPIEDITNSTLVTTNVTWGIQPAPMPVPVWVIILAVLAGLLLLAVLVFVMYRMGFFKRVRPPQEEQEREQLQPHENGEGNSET
T1 chain 2: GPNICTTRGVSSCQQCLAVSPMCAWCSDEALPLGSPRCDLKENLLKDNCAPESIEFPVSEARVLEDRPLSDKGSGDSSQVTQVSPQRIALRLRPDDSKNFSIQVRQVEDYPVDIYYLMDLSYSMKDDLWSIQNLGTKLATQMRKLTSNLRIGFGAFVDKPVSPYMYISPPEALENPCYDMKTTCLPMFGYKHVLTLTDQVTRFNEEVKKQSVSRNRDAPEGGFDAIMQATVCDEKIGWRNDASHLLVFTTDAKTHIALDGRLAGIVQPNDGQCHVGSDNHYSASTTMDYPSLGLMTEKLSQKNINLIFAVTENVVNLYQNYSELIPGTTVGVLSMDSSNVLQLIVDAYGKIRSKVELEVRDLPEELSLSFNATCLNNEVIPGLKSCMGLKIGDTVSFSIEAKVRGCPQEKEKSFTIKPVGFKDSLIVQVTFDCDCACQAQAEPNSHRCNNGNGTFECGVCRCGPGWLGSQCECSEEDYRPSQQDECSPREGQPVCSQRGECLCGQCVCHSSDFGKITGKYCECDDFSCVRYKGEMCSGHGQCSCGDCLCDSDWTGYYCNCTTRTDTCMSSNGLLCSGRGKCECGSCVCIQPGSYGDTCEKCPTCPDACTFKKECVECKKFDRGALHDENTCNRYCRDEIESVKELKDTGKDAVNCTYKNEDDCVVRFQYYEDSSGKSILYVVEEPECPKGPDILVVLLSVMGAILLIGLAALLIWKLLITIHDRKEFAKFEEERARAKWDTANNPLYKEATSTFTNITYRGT

[5] = median, between tracers P 0.05*

Molecule: N=C(N)NCCC[C@@H]1NC(=O)[C@H](CCCCNC(=O)COCCOCCNC(=O)CSC2CC(=O)N(CCCC(=O)NCCCC[C@H](NC(=O)CCCN3C(=O)CC(SCC(=O)NCCOCCOCC(=O)NCCCC[C@@H]4NC(=O)[C@@H](Cc5ccccc5)NC(=O)[C@H](CC(=O)O)NC(=O)CNC(=O)[C@H](CCCNC(=N)N)NC4=O)C3=O)C(=O)NCCCC[C@H](NC(=O)[C@H](CCCCNC(=O)CCCN3C(=O)CC(SCC(=O)NCCOCCOCC(=O)NCCCC[C@@H]4NC(=O)[C@@H](Cc5ccccc5)NC(=O)[C@H](CC(=O)O)NC(=O)CNC(=O)[C@H](CCCNC(=N)N)NC4=O)C3=O)NC(=O)CCCN3C(=O)CC(SCC(=O)NCCOCCOCC(=O)NCCCC[C@@H]4NC(=O)[C@@H](Cc5ccccc5)NC(=O)[C@H](CC(=O)O)NC(=O)CNC(=O)[C@H](CCCNC(=N)N)NC4=O)C3=O)C(=O)N[C@@H](CCCCNC(=O)CN3CCN(CC(=O)O)CCN(CC(=O)O)CCN(CC(=O)O)CC3)C(N)=O)C2=O)NC(=O)[C@@H](Cc2ccccc2)NC(=O)[C@H](CC(=O)O)NC(=O)CNC1=O (some centres unmarked) [^68Ga-RGD4, metal not drawn]
SUV ([1]; mean, 55 to 60 min post-injection): 1.02 SUV
SUV ([1]; median, 55 (56) to 60 min post-injection, between tracers P 0.8065): 0.989 SUV
SUV (standardized uptake value) in tumor (AR42J tumor [2]; maximum, 55 to 60 min post-injection): 1.3084
SUV (standardized uptake value) in tumor (AR42J tumor [2]; median, 55 (56) to 60 min post-injection, between tracers P 0.8065, listed as 68Ga-RGD tetramer): 0.99
SUV (standardized uptake value) in tumor (AR42J tumor [2]; minimum, 55 to 60 min post-injection): 0.7833
VB (vessel density, fractional blood volume) (AR42J tumor [3]; maximum): 0.0713
K1 (transport into the cell; associated with receptor binding) (AR42J tumor [3]; maximum): 0.3195 min⁻¹
RBP (receptor binding potential) (AR42J tumor [3]; maximum): 0.0514
k2 (displacement from the receptor) (AR42J tumor [3]; maximum): 0.6152 min⁻¹
k3 (cellular internalisation) (AR42J tumor [3]; maximum): 0.1352 min⁻¹
k4 (externalization) (AR42J tumor [3]; maximum): 0.0504 min⁻¹
VB (vessel density, fractional blood volume) (AR42J tumor [3]; mean): 0.0582
K1 (transport into the cell; associated with receptor binding) (AR42J tumor [3]; mean): 0.2739 min⁻¹
RBP (receptor binding potential) (AR42J tumor [3]; mean): 0.0453
k2 (displacement from the receptor) (AR42J tumor [3]; mean): 0.5386 min⁻¹
k3 (cellular internalisation) (AR42J tumor [3]; mean): 0.1097 min⁻¹
k4 (externalization) (AR42J tumor [3]; mean): 0.0443 min⁻¹
VB (vessel density, fractional blood volume) (AR42J tumor [3]; [5]): 0.0574
RBP (receptor binding potential) (AR42J tumor [3]; median, between tracers P 0.0275*): 0.0442
K1 (transport into the cell; associated with receptor binding) (AR42J tumor [3]; [5]): 0.2728 min⁻¹
k4 (externalization) (AR42J tumor [3]; [5]): 0.0442 min⁻¹
k2 (displacement from the receptor) (AR42J tumor [3]; median, between tracers P 0.4624): 0.5721 min⁻¹
k3 (cellular internalisation) (AR42J tumor [3]; median, between tracers P 0.8065): 0.1180 min⁻¹
VB (vessel density, fractional blood volume) (AR42J tumor [3]; minimum): 0.0468
K1 (transport into the cell; associated with receptor binding) (AR42J tumor [3]; minimum): 0.2304 min⁻¹
RBP (receptor binding potential) (AR42J tumor [3]; minimum): 0.0414
k2 (displacement from the receptor) (AR42J tumor [3]; minimum): 0.3952 min⁻¹
k3 (cellular internalisation) (AR42J tumor [3]; minimum): 0.0678 min⁻¹
k4 (externalization) (AR42J tumor [3]; minimum): 0.0382 min⁻¹
tracer uptake in other sites [4]: heart (exhibit for ^68Ga-RGD4), liver, kidney, urinary bladder, and testicles
IC50 (ανβ3): 4.97 µM

IC50 (integrin ανβ3, P06756): 4.97 µM
B1: ^68Ga-RGD tetramer (^68Ga-labelled DOTA-comprising RGD tetramer) (peptide)
peptide: cyclo(RGD[dF]K)
modifications: not fully specified (residue 5); also: tetramer on DOTA-Mal4 core, 68Ga on DOTA
